Assay results from patent publication EP4553077A1 (Kinoteck Therapeutics Co., Ltd, priority 2022, dated 2024).

The molecules below were run against Ba/F3-TEL-FGFR2 (Homo sapiens, UniProt P21802+P41212) (assay: Cell viability (proliferation inhibition) of Ba/F3 cells, CellTiter Glo). Details: read-out: Ba/F3 cell FGFR2 (IC50 nM), 72 h.
Chain of Ba/F3-TEL-FGFR2 (P21802 481-770 limits assumed, one chain of several): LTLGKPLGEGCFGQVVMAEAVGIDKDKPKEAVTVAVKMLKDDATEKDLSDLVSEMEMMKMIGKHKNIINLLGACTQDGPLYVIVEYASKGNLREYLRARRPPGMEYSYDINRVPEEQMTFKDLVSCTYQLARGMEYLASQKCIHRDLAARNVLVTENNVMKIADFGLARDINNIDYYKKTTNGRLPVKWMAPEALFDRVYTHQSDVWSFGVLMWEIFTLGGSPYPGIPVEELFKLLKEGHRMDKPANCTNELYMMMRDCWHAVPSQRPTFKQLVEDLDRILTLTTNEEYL
Work on `C=C(C)C(=O)N1CC=C(c2c(-c3ccc(N=S4(=O)CCCCC4)cc3)c3c(N)ncnc3n2C)CC1` [Compound 3, 1-(4-(4-amino-7-methyl-5-(4-(1-oxotetrahydro-2H-1λ^6-thiopyran-1-imino)phenyl)-7H-pyrrolo[2,3-d]pyrimidin-6-yl)-3,6-dihydropyridine-1(2H)-yl)2-methylprop-2-enyl-1-one] yielded an IC50 of 700 nM. Work on `C=C(C)C(=O)Nc1ccc(-c2c(-c3ccc(N=S4(=O)CCCCC4)c(OC)c3)c3c(N)ncnc3n2C)c(F)c1` [Compound 5, N-(4-(4-amino-5-(3-methoxy-4-(1-oxotetrahydro-2H-1λ^6-thiopyran-1-imino)phenyl)-7-methyl-7H-pyrrolo [2,3-d]pyrimidin-6-yl)-3-fluorophenyl) methacrylamide] yielded an IC50 of 29.3 nM. Work on `C=C(C)C(=O)Nc1ccc(-c2c(-c3ccc(N=S4(=O)CCC(F)(F)CC4)cc3)c3c(N)ncnc3n2C)c(F)c1` [Compound 6, N-(4-(4-amino-5-(4-(4,4-difluoro-1-oxotetrahydro-2H-λ^6-thiopyran-1-imino)phenyl) -7-methyl-7H-pyrrolo [2,3-d]pyrimidin-6-yl) -3-fluorophenyl) methacrylamide] yielded an IC50 of 9.3 nM. Molecule `C=C(C)C(=O)Nc1ccc(-c2c(-c3ccc(N=S4(=O)CC(OC)(OC)C4)c(F)c3)c3c(N)ncnc3n2C)cc1` [Compound 10] has an IC50 of 107 nM. In the case of `C=C(C)C(=O)Nc1ccc(-c2c(-c3ccc(N=S4(=O)CC5(COC5)C4)c(F)c3)c3c(N)ncnc3n2C)cc1` [Compound 11], the IC50 is reported as 172 nM. Work on `C=C(C)C(=O)Nc1ccc(F)c(-c2c(-c3ccc(N=S4(=O)CCCCC4)c(F)c3)c3c(N)ncnc3n2C)c1` [Compound 12, N-(3-(4-amino-5-(3-fluoro-4-((1-oxotetrahydro-2H-1 λ^6-thiopyran-1-ylidene)amino)phenyl) -7-methyl-7H-pyrrolo [2,3-d]pyrimidin-6-yl) -4-fluorophenyl) methacrylamide] yielded an IC50 of 276 nM. With `C=CC(=O)Nc1ccc(-c2c(-c3ccc(N=S4(=O)CCCCC4)c(F)c3)c3c(N)ncnc3n2C)cc1` [Compound 13, N-(4-(4-amino-5-(3-fluoro-4-((1-oxotetrahydro-2H-1 λ^6-thiopyran-1-ylidene)amino)phenyl) -7-methyl-7H-pyrrolo [2,3-d]pyrimidin-6-yl)phenyl) acrylamide] the IC50 was 0.6 nM. Molecule `C=C(C)C(=O)Nc1ccc(-c2c(-c3ccc(N=S4(=O)CCCCC4)c(F)c3)c3c(N)ncnc3n2C)c(OC)c1` [Compound 14, N-(4-(4-amino-5-(3-fluoro-4-((1-oxotetrahydro-2H-1 λ^6-thiopyran-1-ylidene)amino)phenyl)-7-methyl-7H-pyrrolo[2,3-d]pyrimidin-6-yl)-3-methoxyphenyl) methacrylamide] has an IC50 of 9.9 nM. `C/C=C/C(=O)Nc1ccc(-c2c(-c3ccc(N=S4(=O)CCCCC4)c(F)c3)c3c(N)ncnc3n2C)cc1` [Compound 15, (E)-N-(4-(4-amino-5-(3-fluoro-4-((1-oxotetrahydro-2H-1λ^6-thiopyran-1-ylidene)amino)phenyl)-7-methyl-7H-pyrrolo [2,3-d]pyrimidin-6-yl) -phenyl)-2-butenamide] gave an IC50 of 15.4 nM. With `CN(C)C/C=C/C(=O)Nc1ccc(-c2c(-c3ccc(N=S4(=O)CCCCC4)c(F)c3)c3c(N)ncnc3n2C)cc1` [Compound 16, (E)-N-(4-(4-amino-5-(3-fluoro-4-((1-oxotetrahydro-2H-1 λ^6-thiopyran-1-ylidene)amino)phenyl) -7-methyl-7H-pyrrolo [2,3-d]pyrimidin-6-yl) - phenyl) -4-(dimethylamino) -2-butenamide] the IC50 was 50.1 nM. For `C=C(C)C(=O)Nc1ccc(-c2c(-c3ccc(N=S4(=O)CCCCC4)nc3)c3c(N)ncnc3n2C)cc1` [Compound 17, N-[4-(4-amino-7-methyl-5-(6-((1-oxotetrahydro-2H-1 λ^6-thiopyran-1-ylidene)amino)pyridin-3-yl)pyrrolo [2,3-d]pyrimidin-6-yl)phenyl) methacrylamide], the IC50 was 4620 nM.
